According to patent US20070071794A1, “DRUGS FOR TREATING DIABETES” (priority 2004, published 2007):

Tests used:
[1] = test system: INS-1 cells derived from pancreatic β cells of rats; assay: Effect of improving insulin secretion defects in INS-1 cells cultured under high glucose; format: cell-based; details: for improvement in insulin secretion defects (significance): secretion defective + amino acid condition, p<0.05; for Index of insulin secretion improvement: 25 mM glucose 28 h, then 11.1 mM glucose + amino acid at 10 times RPMI concentration 19 h, secretion in 16.7 mM glucose 2 h, 0 = defective cond., 1 = ordinary cond.
Source text: INS-1 cells derived from pancreatic β cells of rats were dispersed in each amount of 2×10^5 cells on a 24-well culture plate, then divided into three groups and cultured under the following conditions. That is:
First Group: Culture on RPMI medium (Non-patent Literature 4) under the ordinary condition.
Second Group: Culture under the secretion defective condition by culture under the high glucose concentration. That is, the glucose concentration was increased under the culture conditions of the first group.
Third Group: Under the culture condition of the second group, culture was conducted so that the end concentration of aspartic acid, cystine, serine, asparagine, isoleucine, histidine, hydroxyproline, glutamic acid or valine in the medium became 10 times as high as the concentration thereof in the RPMI medium.
First Group: ordinary condition
• cultured in 11.1 mM glucose for 28 hours, • cultured in 11.1 mM glucose for 19 hours Second Group: secretion defective condition • cultured in 25 mM glucose for 28 hours, • cultured in 11.1 mM glucose for 19 hours Third Group: secretion defective+amino acid condition • cultured in 25 mM glucose for 28 hours,
cultured in 11.1 mM glucose+amino acids for 19 hours
Those cultured cells were further cultured for 1 hour in KRBH buffer (Non-patent Literature 5), and cultured for 2 hours in KRBH buffer containing 16.7 mM glucose. Then, insulin secretion rate was determined. Under the secretion defective condition of the second group, the insulin secretion rate of […] lowered to about 60% of that under the ordinary condition. The effect of improving insulin secretion defects of amino acids was calculated by the following index. Index of insulin secretion improvement=((insulin secretion of the third group)−(insulin secretion of the second group))/((insulin secretion of the first group)−(insulin secretion of the second group))
(Reference: The index of insulin secretion improvement becomes 0 when the insulin secretion in administration of amino acids is same as that in the secretion defective condition, and it becomes 1 when the insulin secretion in administration of amino acids is same as that in the ordinary condition.)

[2] = test system: INS-1 cells derived from pancreatic β cells of rats; assay: Insulin secretion of INS-1 cells with aspartic acid combined with an insulin secretagogue; format: cell-based; details: 5 mM glucose, 2 hours; for insulin secretion rate: n=3, Cond. 1 (no drug) 2.85±0.49; for insulin secretion increase (significance, in words): KRBH buffer, 0.3 μM nateglinide and/or 10 mM aspartic acid, compared to Condition 1 (combination also to Conditions 2, 3)
Method: INS-1 cells derived from pancreatic β cells of rats were dispersed in each amount of 2×10^5 cells on a 24-well culture plate, and cultured on RPMI medium for 48 hours. […] Condition 1: KRBH buffer, 5 mM glucose Condition 2: KRBH buffer, 5 mM glucose, 0.3 μM nateglinide Condition 3: […] Condition 4: […]

GK rats = assay: Glucose tolerance test in GK rats fed aspartic acid (blood glucose ΔAUC, insulinogenic index); format: in vivo; details: for ΔAUC (blood glucose, glucose tolerance test): eighth week, oral 1 g/kg glucose after 5 hour fasting, CON group 230
Method: Male GK rats (7 weeks old) were fed in the following groups.
CON Group: 5 GK rats Controlled food was administered.
3AS Group: 5 GK rats Food with 3% aspartic acid was administered.
6AS Group: 5 GK rats Food with 6% aspartic acid was administered.
In the eighth week of administration, the glucose tolerance test (oral administration of 1 g/kg of glucose) was conducted to the rats after 5 hour fasting, and their blood glucose and insulin levels were determined over time.
Insulinogenic index was determined from the results of the glucose tolerance test after eight week administration in Example 2. Insulinogenic index is the value wherein the insulin rate secreted in 15 minutes after adding glucose was divided by the glucose level that increased in 15 minutes after adding glucose.

Row | Structure (SMILES) | improvement in insulin secretion defects (significance) [1] | Index of insulin secretion improvement [1] | also measured
1 | NCCCC[C@H](N)C(=O)O [lysine, reference compound] | significant improvement in insulin secretion defects was not confirmed | – | –
2 | CC(C)[C@H]1CC[C@H](C(=O)N[C@H](Cc2ccccc2)C(=O)O)CC1 [nateglinide, reference compound] | – | – | insulin secretion rate ([2]; Condition 2: KRBH buffer, 0.3 μM nateglinide): 4.34 ± 1.19 ng/mL; insulin secretion increase (significance, in words) [2]: significant insulin secretion increase was not seen
3 | CC(C)[C@H](N)C(=O)O [Val, valine] | significantly improved | 0.35 | –
4 | N[C@@H](CC(=O)O)C(=O)O [Asp, L-aspartic acid] | significantly improved | 1.75 | ΔAUC (blood glucose, glucose tolerance test) (GK rats; 3AS group: food with 3% aspartic acid): 190 mg·h/dL; ΔAUC (blood glucose, glucose tolerance test) (GK rats; 6AS group: food with 6% aspartic acid): 140 mg·h/dL; Insulinogenic index (result in words) (GK rats; food with 3% or 6% aspartic acid, eight weeks, insulin secreted / glucose increase in 15 minutes after glucose): improved corresponding to the administered dose; glucose tolerance (result in words) (GK rats; food with 6% aspartic acid, after eight week administration): improvement in the glucose tolerance was seen; insulin secretion rate ([2]; Condition 3: KRBH buffer, 10 mM aspartic acid): 3.69 ± 0.87 ng/mL; insulin secretion increase (significance, in words) [2]: significant insulin secretion increase was not seen
5 | N[C@@H](CO)C(=O)O [Ser, serine] | significantly improved | 0.97 | –
6 | O=C(O)[C@@H]1C[C@@H](O)CN1 [Hydroxyproline, hydroxyproline] | significantly improved | 0.64 | –
7 | N=C(N)NCCC[C@H](N)C(=O)O [arginine, reference compound] | significant improvement in insulin secretion defects was not confirmed | – | –
8 | N[C@@H](CSSC[C@H](N)C(=O)O)C(=O)O [Cystine, cystine] | significantly improved | 1.08 | –
9 | N[C@@H](CCC(=O)O)C(=O)O [Glu, glutamic acid] | significantly improved | 0.57 | –
10 | NC(=O)C[C@H](N)C(=O)O [Asn, asparagine] | significantly improved | 0.87 | –
11 | CC(C)C[C@H](N)C(=O)O [leucine, reference compound] | significant improvement in insulin secretion defects was not confirmed | – | –
12 | CC[C@H](C)[C@H](N)C(=O)O [Ile, isoleucine] | significantly improved | 0.84 | –
13 | N[C@@H](Cc1c[nH]cn1)C(=O)O [His, histidine] | significantly improved | 0.67 | –
